Assay results taken from PMC6588697, “Lugdunin amplifies innate immune responses in the skin in synergy with host- and microbiota-derived factors” (Nature Communications, 2019).
Several values for one entry are separate records, joined by “and”; a condition that tells them apart may be missing. Equal values may be shown once.

Columns and labels:
mouse skin = test: Cytokines in mouse skin culture supernatant after epicutaneous treatment; assay type: in vivo, C57BL/6 WT, MyD88-ko, 5xTLR-ko mice; details: 1.5 µg lugdunin epicutaneous 24 h; for MIP-2 concentration in skin culture supernatant: Fig 2e; for IL-1α concentration in skin culture supernatant: Fig 2d
Experimental: Fig. 2 Induction of chemokine (C-X-C motif) ligand 8/macrophage inflammatory protein-2 (CXCL8/MIP-2) by lugdunin is TLR2/MyD88-dependent. a HEK-control or HEK-TLR2 cells were treated with 2 μM lugdunin for 5 h and subsequently the CXCL8 concentration in the supernatant was analyzed by LEGENDplex^TM (BioLegend). Shown is one representative experiment of three independent experiments with two technical replicates ± s.e.m. b HEK-control or HEK-TLR2 cells were treated with increasing concentrations of lugdunin for 5 h and subsequently expression of CXCL8 was analyzed and normalized to actin. Shown is one representative experiment of three independent experiments with two technical replicates ± s.e.m. c Schematic overview of the mouse experiments: 6–8-week-old female C5BL/6 WT, MyD88-knockout (ko), or 5xTLR-ko mice were epicutaneously treated with 1.5 µg lugdunin or phosphate-buffered saline (PBS) as a control. After 24 h, mice were euthanized, 4 mm skin punches were taken, and further cultured in vitro for 10 h followed by cytokine analysis of the culture supernatant by LEGENDplex^TM (BioLegend). d, e Shown are the mean concentrations of IL-1α (d) or MIP-2 (e) in the skin culture supernatant of two skin punches from four mice each ± s.e.m. Significant differences to control treatments were analyzed by an unpaired two-tailed t test (*P < 0.05; **P < 0.01; ***P < 0.001). f Representative MIP-2-stained paraffin-embedded mouse skin sections. Scale bar, 100 µM. Source data are provided as a Source Data file
For cytokine analysis from cell cultures, 10 µL of supernatant was used for cytokine analysis via the LEGENDplex^TM human inflammation panel (BioLegend). For cytokine analysis from mouse skin, 4 mm skin punches were cultured in an airlift system where only the dermis had access to medium for 10 h. Skin punches were cultured in RPMI containing 1% FCS (Biochrom/Merck Millipore), 1% penicillin and streptomycin (Gibco/Life Technologies) and 0.25 µg/mL amphotericin B (CELLnTEC). Ten microliters of a 3-fold dilution of culture supernatant was used for cytokine analysis via the LEGENDplex^TM mouse inflammation panel (BioLegend). Samples were acquired in duplicates using a BD LSRII flow cytometer (BD Biosciences) and LEGENDplex^TM Software (BioLegend).
For IL-1α analysis, 100 µL of cell culture supernatant was analyzed via ELISA (R&D Systems) according to manufacturer’s instruction. For MIP-2 analysis, 100 µL of a 5-fold dilution from skin cultures supernatant was used and analyzed via ELISA (R&D Systems) according to the manufacturer’s instruction. For LL-37 ELISA, ELISA plates (Nunc) were coated overnight at 4 °C with 100 µL of cell culture supernatant or 2-fold dilutions of LL-37 starting from 8 µg/mL. The next day, the plate was washed three times using PBS + 0.5% BSA + 0.05% Triton X-100, followed by incubation with 100 µL primary antibody against hCAP18/LL-37 (HycultBiotech, Cat#HM2071, 1:120 in PBS + 0.5% BSA + 0.05% Triton X-100) at 37 °C for 1 h. After washing, incubation with 100 µL secondary antibody (Cell Signaling, Cat#7076S, 1:3000 in PBS + 0.5% BSA + 0.05% Triton X-100) followed at 37 °C for 1 h. Subsequently, plates were washed and 100 µL TMB substrate solution (Cell Signaling) was added. Reaction was stopped with 50 µL 2 N H2SO4 and absorbance at 450 nm was measured using a Fluoroskan II (Labsystems).
To analyze the immune cell composition and cytokines in the skin, 15 µL containing 1.5 μg lugdunin or PBS as a control were epicutaneously applied for 24 h on the shaved back skin of C57BL/6 WT/MYD88-ko/5xTLR-ko mice. After 24 h, mice were euthanized and relevant skin areas or 4 mm skin punches were removed for immune cell analysis and LEGENDplex^TM (BioLegend) cytokine analysis. […]
55 c: Shown are the mean concentrations of the indicated cytokines in the supernatant of
56 the organ skin culture of two skin punches from four mice each +/- s.e.m. […]
61 Source data are provided as a Source Data file.

HTEpCs = test: CXCL8 expression in HTEpCs (qRT-PCR); assay type: cell-based, human; details: 5 h, two technical replicates
Experimental: Quantitative reverse transcription-polymerase chain reaction (qRT-PCR) was performed in 10 µL reaction volume with SYBR^TM Green PCR Master Mix (Thermo Fisher) according to the manufacturer’s instructions using a LightCycler 96 (Roche Life Science). The initial denaturation step was at 95 °C for 5 min, followed by 40 cycles with 10 s each for the denaturation step at 95 °C, the annealing at individual temperature, and the elongation at 72 °C. Primer sequences and respective annealing temperatures are listed in Supplementary Table 1. […]
31 g+h+i: HNEpCs (b), HTEpCs (c) or PBMCs (d) were treated with increasing
32 concentrations of lugdunin (grey bars) or 100 ng/mL Pam2Cys or Pam3Cys (white
33 bars) as positive controls for 5 hours and subsequently expression of CXCL8 was
34 analyzed and normalized to actin. Black bar: medium control. Shown is one
35 representative experiment of three independent experiments with two technical
36 replicates +/-s.e.m. Significant differences to control treatments were analyzed by
37 ordinary one-way ANOVA followed by Dunnett’s multiple comparisons test (*P<0.05; […]

[1] = 5xTLR-ko mice, punches cultured 10 h, single punches
[2] = MyD88-ko mice, punches cultured 10 h, single punches

Lugdunin
MIP-2 concentration in skin culture supernatant (mouse skin; [1]): reduced
IL-1α concentration in skin culture supernatant (mouse skin; [1]): still able to induce
MIP-2 concentration in skin culture supernatant (mouse skin; [2]): completely impaired
IL-1α concentration in skin culture supernatant (mouse skin; [2]): still able to induce
MIP-2 concentration in skin culture supernatant (mouse skin; WT mice, punches cultured 10 h, single punches): induced
IL-1α concentration in skin culture supernatant (mouse skin; WT mice, skin punches cultured 10 h, single punches (rows)): induced
CXCL8 fold induction (HTEpCs; lugdunin 0.5 µM, sheet Supp Fig 1g): 1.537 and 1.231
CXCL8 fold induction (HTEpCs; lugdunin 1 µM): 4.112 and 4.228
CXCL8 fold induction (HTEpCs; lugdunin 2 µM): 16.564 and 16
CXCL8 fold induction (HTEpCs; lugdunin 3 µM): 18.001 and 14.929
CXCL8 fold induction (HTEpCs; lugdunin 5 µM): 23.264 and 22.316
CXCL8 fold induction (HTEpCs; lugdunin 10 µM): 16.056 and 17.328
